Experimental data: ChEMBL document CHEMBL4602666, “Nostotrebin 6 Related Cyclopentenediones and δ-Lactones with Broad Activity Spectrum Isolated from the Cultivation Medium of the Cyanobacterium Nostoc sp. CBT1153” (J Nat Prod, 2020)
≈ marks a conversion by molar mass, not a printed value. Calls of active or inactive are those of the source. The rule behind the calls is not given here.

What was measured:
[1] = biological target: Rhodesain (Trypanosoma brucei rhodesiense, UniProt Q95PM0); test: Inhibition of Trypanosoma brucei rhodesiense C-terminal full length rhodesain expressed in Pichia pastoris using Cbz-PheArg-AMC as substrate measured every 30 sec for 10 mins by fluorescence based assay
[2] = tested on: HeLa; test: Cytotoxicity against human HeLa cells assessed as reduction in cell viability after 24 hrs by resazurin staining based fluorescence assay
[3] = tested on: Bacillus subtilis; test: Antibacterial activity against Bacillus subtilis 168 assessed as reduction cell viability after 16 to 20 hrs by CLSI based two-fold serial dilution method; format: functional
[4] = tested on: Enterococcus faecium; test: Antibacterial activity against Enterococcus faecium BM4147-1 assessed as reduction cell viability after 16 to 20 hrs by CLSI based two-fold serial dilution method; format: functional
[5] = tested on: Staphylococcus aureus; test: Antibacterial activity against Staphylococcus aureus ATCC 29213 assessed as reduction cell viability after 16 to 20 hrs by CLSI based two-fold serial dilution method; format: functional
[6] = biological target: Rhodesain (Trypanosoma brucei rhodesiense) (UniProt Q95PM0); test: Inhibition of Trypanosoma brucei rhodesiense C-terminal full length rhodesain expressed in Pichia pastoris using Cbz-PheArg-AMC as substrate preincubated for 5 to 30 mins followed by substrate and measured every 30 sec for 10 mins by fluorescence based assay
[7] = biological target: Rhodesain (Trypanosoma brucei rhodesiense) (UniProt Q95PM0); test: Inhibition of Trypanosoma brucei rhodesiense C-terminal full length rhodesain expressed in Pichia pastoris at 50 uM using Cbz-PheArg-AMC as substrate measured every 30 sec for 10 mins in presence of 0.005 to 0.025 % of Brij-35 by fluorescence based assay
[8] = biological target: Rhodesain (Trypanosoma brucei rhodesiense) (UniProt Q95PM0); test: Inhibition of Trypanosoma brucei rhodesiense C-terminal full length rhodesain expressed in Pichia pastoris at 50 uM using Cbz-PheArg-AMC as substrate measured every 30 sec for 10 mins in presence of 4.75 mM DTT by fluorescence based assay

Rhodesain (Trypanosoma brucei rhodesiense), sequence (Q95PM0 1-450): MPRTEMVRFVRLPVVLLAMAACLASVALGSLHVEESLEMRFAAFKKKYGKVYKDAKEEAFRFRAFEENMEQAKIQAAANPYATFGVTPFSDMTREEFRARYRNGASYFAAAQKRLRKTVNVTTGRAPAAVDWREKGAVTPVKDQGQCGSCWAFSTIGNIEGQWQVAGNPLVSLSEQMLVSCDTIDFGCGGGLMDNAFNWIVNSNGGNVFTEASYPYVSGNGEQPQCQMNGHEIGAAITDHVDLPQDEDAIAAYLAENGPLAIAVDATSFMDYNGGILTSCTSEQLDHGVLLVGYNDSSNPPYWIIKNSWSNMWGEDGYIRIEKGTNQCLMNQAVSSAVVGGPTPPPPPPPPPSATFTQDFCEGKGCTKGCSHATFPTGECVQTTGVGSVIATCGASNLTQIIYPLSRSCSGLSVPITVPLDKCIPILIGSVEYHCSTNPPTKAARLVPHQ
Rhodesain, sequence (Q95PM0 whole entry): as the sequence (Q95PM0 1-450) above

| Compound | IC50 [1] [µM] | IC50 [2] [µM] | MIC [3] [µM] | MIC [4] [µM] | MIC [5] [µM] | inhibition [6] | inhibition [7] | inhibition [8] |
| --- | --- | --- | --- | --- | --- | --- | --- | --- |
| O=C1C(Cc2ccc(O)cc2)=C(Cc2ccc(O)cc2)C(=O)C1(c1ccc(O)cc1)C1(c2ccc(O)cc2)C(=O)C(Cc2ccc(O)cc2)=C(Cc2ccc(O)cc2)C1=O | 15 | 16 | 13 (≈ 10.4 µg/mL) | 13 (≈ 10.4 µg/mL) | 13 (≈ 10.4 µg/mL) | Active | Active | Active |
| O=c1oc(-c2ccc(O)cc2)cc(Cc2ccc(O)cc2)c1Cc1ccc(O)cc1O | 63 | 84 | 50 (≈ 20.8 µg/mL) | 100 (≈ 41.6 µg/mL) | 50 (≈ 20.8 µg/mL) | – | – | – |
| O=C1C(Cc2ccc(O)cc2)=C(Cc2ccc(O)cc2)C(=O)C1(c1ccc(O)cc1)c1cc(Cc2c(Cc3ccc(O)cc3)cc(-c3ccc(O)cc3)oc2=O)c(O)cc1O | 33 | 33 | 3 (≈ 2.44 µg/mL) | 13 (≈ 10.6 µg/mL) | 3 (≈ 2.44 µg/mL) | – | – | – |
